The numbers were not newly measured in paper PMC2898477, “High-quality crystals of human haematopoietic prostaglandin D synthase with novel inhibitors” (2010), which cites them from elsewhere.

In the data set the target is T1, haematopoietic prostaglandin D synthase (H-PGDS) (Homo sapiens, UniProt O60760).
T1 construct: gene HPGDS
The data set can be described thus: co-crystallization and X-ray diffraction of the complex ([…] Å, P1); IC50 cited from Aritake et al. […]. The data set is classed as biochemical.

T1 sequence (O60760 whole entry): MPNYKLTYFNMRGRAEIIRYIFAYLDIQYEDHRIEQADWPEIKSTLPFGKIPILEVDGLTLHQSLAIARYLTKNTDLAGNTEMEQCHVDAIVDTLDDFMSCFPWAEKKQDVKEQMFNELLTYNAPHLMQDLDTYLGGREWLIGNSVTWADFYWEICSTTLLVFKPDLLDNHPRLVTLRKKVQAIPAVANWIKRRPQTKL

Take `c1ccc(C(OC2CCN(CCCc3nnn[nH]3)CC2)c2ccccc2)cc1` [HQL-79, 4-benzhydryloxy-1-[3-(1H-tetrazol-5-yl)-propyl]-piperidine]: the half-maximal inhibitory concentration (IC50) was 5.9 µM.

What is called IC50 is the concentration needed to halve the response being measured.
